Assays:
Test in all cases: relative viability (nuclei count vs DMSO), 5 days (fraction); higher = more cells survive
Midostaurin + Lapatinib = compound: CO[C@@H]1[C@H](N(C)C(=O)c2ccccc2)C[C@H]2O[C@]1(C)n1c3ccccc3c3c4c(c5c6ccccc6n2c5c31)C(=O)NC4 [Midostaurin] + CS(=O)(=O)CCNCc1ccc(-c2ccc3ncnc(Nc4ccc(OCc5cccc(F)c5)c(Cl)c4)c3c2)o1 [Lapatinib] (partner 2 µM)
Summary of the method: (§1)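 After 5 days of treatment, lung cancer cells in 1536-well plates were fixed and stained in a single step (final 0.05% Triton X-100, 1% formaldehyde, 1 ug/ml Hoechst) and their nuclei counted on 4× images. Treatment had been applied by pin tool the day after seeding as one drug alone or as a fixed anchor-drug dose with five library-drug doses (not always all listed) in √10 steps. Relative viability is the nuclei count of treated wells divided by that of vehicle wells, and values are medians of duplicate plates.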

[1] = compound: COc1cc(-c2nn([C@H]3CC[C@H](N4CCN(C(C)=O)CC4)CC3)c3ncnc(N)c23)ccc1NC(=O)c1cc2ccccc2n1C + CC1(C)CCC(c2ccc(Cl)cc2)=C(CN2CCN(c3ccc(C(=O)NS(=O)(=O)c4ccc(N[C@H](CCN5CCOCC5)CSc5ccccc5)c(S(=O)(=O)C(F)(F)F)c4)cc3)CC2)C1 [Navitoclax] (partner 0.5 µM)
Summary of the method: as §1

[2] = compound: COc1cc(-c2nn([C@H]3CC[C@H](N4CCN(C(C)=O)CC4)CC3)c3ncnc(N)c23)ccc1NC(=O)c1cc2ccccc2n1C + CCNC(=O)c1noc(-c2cc(C(C)C)c(O)cc2O)c1-c1ccc(CN2CCOCC2)cc1 [Luminespib] (partner 0.01 µM)
Summary of the method: as §1

[3] = compound: COc1cc(-c2nn([C@H]3CC[C@H](N4CCN(C(C)=O)CC4)CC3)c3ncnc(N)c23)ccc1NC(=O)c1cc2ccccc2n1C + Cc1nc(Nc2ncc(C(=O)Nc3c(C)cccc3Cl)s2)cc(N2CCN(CCO)CC2)n1 [Dasatinib] (partner 0.075 µM)
Summary of the method: as §1

[4] = compound: COc1cc(-c2nn([C@H]3CC[C@H](N4CCN(C(C)=O)CC4)CC3)c3ncnc(N)c23)ccc1NC(=O)c1cc2ccccc2n1C + NC(=O)Nc1cc(-c2cccc(F)c2)sc1C(=O)N[C@H]1CCCNC1 [AZD7762] (partner 0.2 µM)
Summary of the method: as §1

Cell Line	relative viability (Midostaurin + Lapatinib; first compound 0.01 µM)	relative viability (Midostaurin + Lapatinib; first compound 0.03162 µM)	relative viability (Midostaurin + Lapatinib; first compound 0.1 µM)	relative viability (Midostaurin + Lapatinib; first compound 0.3162 µM)	relative viability ([1]; first compound 0.0128 µM)	relative viability ([1]; first compound 0.04048 µM)	relative viability ([1]; first compound 0.128 µM)	relative viability ([1]; first compound 1.28 µM)	relative viability ([2]; first compound 0.0128 µM)	relative viability ([2]; first compound 0.04048 µM)	relative viability ([2]; first compound 0.128 µM)	relative viability ([2]; first compound 1.28 µM)	relative viability ([3]; first compound 0.0128 µM)	relative viability ([3]; first compound 0.04048 µM)	relative viability ([3]; first compound 0.128 µM)	relative viability ([3]; first compound 1.28 µM)	relative viability ([4]; first compound 0.0128 µM)	relative viability ([4]; first compound 0.04048 µM)	relative viability ([4]; first compound 0.128 µM)	relative viability ([4]; first compound 1.28 µM)
HOP-62	1.02	0.994	1.14	1.06	1.06	1.18	0.825	1.1	0.972	0.823	1	0.879	0.704	0.514	0.632	0.765	0.74	0.555	0.661	0.566
LC-2-ad	0.989	0.956	0.982	0.855	0.509	0.429	0.473	0.389	1.1	1.29	0.944	0.932	0.633	0.25	0.622	0.369	0.86	0.846	0.789	0.646
LCLC-97TM1	0.73		0.846	1.12	0.464	0.388	0.385	0.389	0.838	0.545	0.757	0.404	0.97	0.348	0.789	0.697	0.377	0.165	0.283	0.194
LK-2	0.916	0.901	0.921	0.822	1.04	0.861	0.621	0.685	0.21	0.171	0.21	0.159	0.312	0.264	0.326	0.417	0.485	0.243	0.321	0.188
LOU-NH91	0.736	0.736	0.811	0.924	0.658	0.661	0.768	0.638	0.413	0.28	0.352	0.321	0.557	0.545	0.531	0.54	0.813	0.796	0.732	0.658
LU99A	0.983	1.04	1.02	0.993	0.854	0.842	0.773	0.815	0.261	0.251	0.261	0.277	0.541	0.541	0.634	0.556	0.327	0.404	0.352	0.35
LXF-289	0.92	0.888	0.866	0.951	1.01	0.886	0.967	0.959	0.783	0.732	0.663	0.702	0.291	0.314	0.237	0.227	1.29	0.964	1.04	1.14
NCI-H23	1.05	1	1	0.949	0.825	0.549	0.716	0.77	0.198		0.201	0.191	0.736	0.469	0.778	0.741	0.268	0.199	0.261	0.199
NCI-H322M	0.621	0.465	0.627	0.695	1.36	1.09	1.18	1.12	0.887	0.935	0.756	0.483	0.262	0.256	0.234	0.253	0.496	0.599	0.536	0.444
NCI-H358	0.582	0.391	0.584	0.499					0.452	0.251	0.395	0.296	0.188	0.138	0.151	0.163	0.496	0.5	0.444	0.225
NCI-H441					0.868	0.798	0.91	0.581	0.337	0.347	0.31	0.244	0.628	0.463	0.657	0.536	1.21	1.01	1.12	0.717
NCI-H460	0.839	1.03	0.971	0.936	1.2	1.41	1.03	0.862	0.0282	0.0389	0.0319	0.0347	0.526	0.386	0.475	0.507	0.618	0.73	0.603	0.579
NCI-H596	1.21	1.12	1.13	1.34	1.06	1.02	0.911	0.525	1.06	1.2	0.893	0.583	0.564	0.73	0.573	0.559	1.55	1.15	1.09	0.851
NCI-H647	0.932	1.12	0.768	0.646	1.29	1.18	1.06	0.669	0.172	0.168	0.158	0.159	0.155	0.227	0.164	0.203	0.503	0.602	0.403	0.367
NCI-H650	0.838	0.988	0.582	0.687					0.731	0.861	0.941	0.754	0.475	0.592	0.462	0.456	1.13	1.02	0.975	0.935
NCI-H1703	1.04	1.08	1.1	0.317	1.45	1.17	0.736	0.236									0.138	0.114	0.129	0.117

Reference: the supplement of paper PMC10307832
